# Earlier results as cited in patent publication US8183227B1, “Compositions, kits and methods for nutrition supplementation” (Chemo S. A. France, priority 2011, dated 2012).
# Conditions: intake of about 1000 IU per day, all adults
smiles,measurement,value
"C=C1CC[C@H](O)C/C1=C/C=C1\CCC[C@]2(C)[C@@H]([C@H](C)CCCC(C)C)CC[C@@H]12 [vitamin D3, cholecalciferol]",share of the population brought up to the 30 ng/ml serum range for 25-hydroxyvitamin D,at least 50 % of the population
